Experiments:
Homo sapiens = organism: Homo sapiens; assay: Selectivity ratio of Ki for human dopamine D2 receptor to Ki for human dopamine D4 receptor
[1] = biological target: T1, Muscarinic acetylcholine receptor M4 (Homo sapiens, UniProt P08173); assay: Displacement of [3H]NMS from human muscarinic M4 receptor expressed in CHO cell membranes after 2 hrs by liquid scintillation counting method
T1 sequence (P08173 whole entry): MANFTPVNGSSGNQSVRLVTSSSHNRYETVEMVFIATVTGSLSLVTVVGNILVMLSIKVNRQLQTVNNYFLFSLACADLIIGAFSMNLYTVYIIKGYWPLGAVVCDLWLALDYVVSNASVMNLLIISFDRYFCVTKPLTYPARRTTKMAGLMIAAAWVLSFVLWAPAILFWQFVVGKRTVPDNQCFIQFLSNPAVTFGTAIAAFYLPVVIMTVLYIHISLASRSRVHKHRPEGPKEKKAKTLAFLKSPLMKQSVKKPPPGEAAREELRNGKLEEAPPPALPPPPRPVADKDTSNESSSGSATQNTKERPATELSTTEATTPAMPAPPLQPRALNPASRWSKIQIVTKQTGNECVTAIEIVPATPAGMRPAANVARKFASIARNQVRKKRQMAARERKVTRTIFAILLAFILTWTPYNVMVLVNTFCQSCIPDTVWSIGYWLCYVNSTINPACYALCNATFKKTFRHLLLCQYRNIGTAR

[2] = biological target: T2, Muscarinic acetylcholine receptor M1 (Homo sapiens) (UniProt P11229); assay: Agonist activity at human SP/Myc epitope-tagged muscarinic M1 receptor expressed in HEK293T cells assessed as RLuc8-fused Galphaq activation after 2 mins by BRET assay relative to carbachol; assay type: cell-based; conditions: HEK-293T
T2 sequence (whole entry): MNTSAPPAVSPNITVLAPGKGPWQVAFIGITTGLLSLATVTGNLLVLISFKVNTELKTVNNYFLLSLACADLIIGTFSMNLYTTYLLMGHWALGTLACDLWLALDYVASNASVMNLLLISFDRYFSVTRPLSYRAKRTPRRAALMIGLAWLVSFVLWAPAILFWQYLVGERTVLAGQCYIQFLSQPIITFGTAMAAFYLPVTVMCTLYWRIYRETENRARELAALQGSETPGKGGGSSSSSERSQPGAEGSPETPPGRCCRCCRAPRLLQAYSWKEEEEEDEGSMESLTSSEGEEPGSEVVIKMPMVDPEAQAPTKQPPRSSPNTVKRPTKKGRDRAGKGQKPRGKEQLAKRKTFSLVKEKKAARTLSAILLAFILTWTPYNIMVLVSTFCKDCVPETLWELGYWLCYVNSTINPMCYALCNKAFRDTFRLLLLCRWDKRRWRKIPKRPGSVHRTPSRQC

[3] = biological target: T3, Alpha-1A adrenergic receptor (Homo sapiens, UniProt P35348); assay: Displacement of [3H]prazosin from human recombinant alpha-1A adrenergic receptor expressed in CHO cell membranes after 30 mins by liquid scintillation counting method
T3 sequence (P35348 whole entry): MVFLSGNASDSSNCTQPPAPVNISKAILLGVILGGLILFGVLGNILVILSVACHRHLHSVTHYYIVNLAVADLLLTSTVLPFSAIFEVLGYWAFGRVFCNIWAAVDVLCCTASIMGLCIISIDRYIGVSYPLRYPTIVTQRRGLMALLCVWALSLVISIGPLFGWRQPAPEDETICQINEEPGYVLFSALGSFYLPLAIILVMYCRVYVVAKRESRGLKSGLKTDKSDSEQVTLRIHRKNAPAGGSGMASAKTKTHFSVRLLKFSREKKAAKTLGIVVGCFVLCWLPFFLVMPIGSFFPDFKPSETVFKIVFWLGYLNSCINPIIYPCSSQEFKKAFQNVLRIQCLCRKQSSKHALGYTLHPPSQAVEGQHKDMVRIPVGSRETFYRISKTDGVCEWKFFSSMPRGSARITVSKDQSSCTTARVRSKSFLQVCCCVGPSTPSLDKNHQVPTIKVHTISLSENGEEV

[4] = biological target: Beta-2 adrenergic receptor (Homo sapiens, UniProt P07550); assay: Displacement of [3H]CGP12177 from human recombinant beta2 adrenergic receptor expressed in HEK293 cell membranes after 90 mins by beta counting method
[5] = biological target: Sigma non-opioid intracellular receptor 1 (Cavia porcellus, UniProt Q60492); assay: Displacement of [3H](+)-pentazocine from sigma1 receptor in Hartley guinea pig brain cortex after 120 mins by scintillation counting method
[6] = biological target: Sodium-dependent dopamine transporter (Rattus norvegicus, UniProt P23977); assay: Displacement of [3H]WIN 35,428 from DAT in Sprague-Dawley rat striatum after 120 mins by scintillation counting method
D(4) dopamine receptor = biological target: T4, D(4) dopamine receptor (Homo sapiens, UniProt P21917); assay: Antagonist activity at human SP/Myc epitope-tagged dopamine D4 receptor expressed in HEK293T cells assessed as inhibition of dopamine-induced RLuc8-fused Galphai1 activation preincubated for 15 mins followed by dopamine induction measured after 2 mins by BRET assay; assay type: cell-based, HEK-293T
T4 sequence (P21917 whole entry): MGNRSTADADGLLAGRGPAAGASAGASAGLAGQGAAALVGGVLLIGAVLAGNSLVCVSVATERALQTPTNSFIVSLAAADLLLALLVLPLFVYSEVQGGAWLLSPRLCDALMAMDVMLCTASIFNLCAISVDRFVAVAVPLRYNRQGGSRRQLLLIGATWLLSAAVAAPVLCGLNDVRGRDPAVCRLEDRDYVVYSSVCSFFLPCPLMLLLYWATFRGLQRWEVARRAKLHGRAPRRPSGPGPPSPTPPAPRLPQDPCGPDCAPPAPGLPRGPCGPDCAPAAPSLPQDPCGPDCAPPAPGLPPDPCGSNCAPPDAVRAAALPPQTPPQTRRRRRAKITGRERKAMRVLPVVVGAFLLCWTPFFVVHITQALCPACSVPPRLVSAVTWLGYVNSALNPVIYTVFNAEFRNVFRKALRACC

[7] = biological target: T5, Muscarinic acetylcholine receptor M1 (Homo sapiens, UniProt P11229); assay: Agonist activity at human SP/Myc epitope-tagged muscarinic M1 receptor expressed in HEK293T cells assessed as RLuc8-fused Galphaq activation after 2 mins by BRET assay; assay type: cell-based, HEK-293T
T5 sequence (P11229 whole entry): T2 sequence (whole entry)

[8] = biological target: T2, Muscarinic acetylcholine receptor M1 (Homo sapiens); assay: (§1) Antagonist activity at human SP/Myc epitope-tagged muscarinic M1 receptor expressed in HEK293T cells assessed as inhibition of carbachol-induced mVenus-fused beta-arrestin2 recruitment preincubated for 15 mins followed by carbachol induction measured after 2 mins by BRET assay; assay type: cell-based; conditions: HEK-293T
[9] = biological target: T5, Muscarinic acetylcholine receptor M1; assay: as §1; assay type: cell-based, HEK-293T
[10] = Half life in mouse liver microsomes at 0.5 uM preincubated for 30 mins followed by NADPH addition measured over 30 mins by HPLC-MS/MS method; assay type: ADME, microsome
MDR1 = assay: Apparent passive permeability across basolateral to apical side in MDCK2 cells expressing MDR1 at 3 uM after 60 mins by mass spectroscopy; assay type: ADME, cell-based, Canis lupus familiaris, MDCK-II; conditions: dog, MDCK-MDR1

Sigma non-opioid intracellular receptor 1, sequence (Q60492 whole entry): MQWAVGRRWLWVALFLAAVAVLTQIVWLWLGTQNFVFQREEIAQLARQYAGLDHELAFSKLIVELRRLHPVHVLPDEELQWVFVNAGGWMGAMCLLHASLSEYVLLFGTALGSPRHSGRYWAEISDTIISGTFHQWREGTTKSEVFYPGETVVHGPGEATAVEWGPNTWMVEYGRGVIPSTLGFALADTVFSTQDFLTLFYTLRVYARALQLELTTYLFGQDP
Sodium-dependent dopamine transporter, sequence (P23977 whole entry, the tested form may be a part): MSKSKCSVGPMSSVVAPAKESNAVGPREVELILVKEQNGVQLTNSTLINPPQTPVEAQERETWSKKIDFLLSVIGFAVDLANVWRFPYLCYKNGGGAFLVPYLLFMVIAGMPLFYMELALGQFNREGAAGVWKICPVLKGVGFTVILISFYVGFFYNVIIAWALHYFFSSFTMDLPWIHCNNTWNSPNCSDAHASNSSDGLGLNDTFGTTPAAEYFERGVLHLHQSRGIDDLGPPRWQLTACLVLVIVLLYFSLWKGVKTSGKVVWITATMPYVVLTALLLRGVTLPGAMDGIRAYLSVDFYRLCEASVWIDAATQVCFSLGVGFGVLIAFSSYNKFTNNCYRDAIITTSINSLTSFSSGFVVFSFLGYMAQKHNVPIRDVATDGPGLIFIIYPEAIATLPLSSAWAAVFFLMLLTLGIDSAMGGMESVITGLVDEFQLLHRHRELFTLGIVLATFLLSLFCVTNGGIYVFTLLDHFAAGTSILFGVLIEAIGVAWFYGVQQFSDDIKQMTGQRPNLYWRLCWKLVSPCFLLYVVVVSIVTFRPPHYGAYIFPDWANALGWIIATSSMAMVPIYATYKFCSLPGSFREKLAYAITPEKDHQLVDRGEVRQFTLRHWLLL
Beta-2 adrenergic receptor, sequence (P07550 whole entry): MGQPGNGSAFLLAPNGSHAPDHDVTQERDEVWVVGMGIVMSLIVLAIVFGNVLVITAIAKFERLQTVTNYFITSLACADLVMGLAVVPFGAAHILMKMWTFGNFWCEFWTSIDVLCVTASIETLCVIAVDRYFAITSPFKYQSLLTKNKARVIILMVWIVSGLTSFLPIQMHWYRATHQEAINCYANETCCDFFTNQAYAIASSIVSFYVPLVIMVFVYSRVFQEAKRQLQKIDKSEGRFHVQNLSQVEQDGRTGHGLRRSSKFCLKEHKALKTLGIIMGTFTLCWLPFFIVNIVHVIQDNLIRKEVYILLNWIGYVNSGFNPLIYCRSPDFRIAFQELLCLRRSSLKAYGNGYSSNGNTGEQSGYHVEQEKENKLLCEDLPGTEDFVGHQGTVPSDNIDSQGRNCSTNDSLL

| SMILES | Ratio Ki (Homo sapiens) | Ki [1] | Emax [2] | Ki [3] | Ki [4] | Ki [5] | Ki [6] | IC50 (D(4) dopamine receptor) | EC50 [7] | Imax [8] | IC50 [9] | half-life at 0.5 µM [10] | Papp B→A at 1 h, 3 µM (MDR1) |
| --- | --- | --- | --- | --- | --- | --- | --- | --- | --- | --- | --- | --- | --- |
| O=C1CCc2ccccc2N1CCCN1CCC(Cc2ccccc2)CC1 | 724 | 724 nM | 25% | 257 nM | 9550 nM | 10 nM | 447 nM | 170 nM | 186 nM | 71% | 1200 nM | 3.5 min | 20.9 ×10⁻⁶ cm/s |
| O=C1CCc2ccccc2N1CCCN1CCN(c2ccccc2)CC1 | 380 | 9330 nM | 42% | 53.7 nM | 35500 nM | 269 nM | 8710 nM | 9.77 nM | 646 nM | 53% | 832 nM | 8.71 min | 19.7 ×10⁻⁶ cm/s |

— ChEMBL document CHEMBL4043296 (J Med Chem, 2018)
